Tested on: hypertriglyceridemic patients with cardiovascular disease or at high risk for cardiovascular disease
Experiment: REDUCE-IT: bleeding-related adverse events (serious and any, by category, preferred term, antithrombotic medication, fatal association)
Assay type: in vivo
From the text: Adverse Events of Special Interest: Bleeding-related adverse events, glucose control (fasting blood glucose and HbA1c), and indicators of hepatic disorders (e.g., ALT or AST increases >3×ULN, total bilirubin increases of ≥2×ULN) were summarized separately and compared between treatment groups.
Due to the convergence of clinical events shortly before a patient's death, direct causality of an individual bleeding event with death cannot always be determined. Bleeding-related clinical events (i.e., TEAEs, SAEs, or positively adjudicated endpoints) that occurred proximal to death (per site Investigator, CEC, or Sponsor medical assessment) are presented in Table 82 and occurred in 23 (0.6%) patients in the AMR101 group and 34 (0.8%) patients in the placebo group, with no statistically significant difference between treatment groups (p=0.18). Sponsor medical assessment classified 20 (0.5%) patients in the AMR101 group and 23 (0.6%) patients in the placebo group as having a bleeding event that likely contributed to death, with no statistically significant difference between treatment groups (p=0.76). […] None of these 57 deaths were associated with study drug per Investigator assessment; one bleeding event in each treatment group was considered possibly related to study drug per Investigator assessment.
A summary of baseline or on-treatment anti-thrombic medication use by type in patients with serious bleeding events for the ITT population is provided in Tables 97A-97D.

## CC/C=C\C/C=C\C/C=C\C/C=C\C/C=C\CCCC(=O)OCC [AMR101, eicosapentaenoic acid ethyl ester]
Safety population
  Bleeding event that did not likely contribute to death (Sponsor medical assessment), patients: 3 (0.1%) n (%)
  Bleeding event that likely contributed to death (Sponsor medical assessment), patients: 20 (0.5%) n (%)
  Bleeding-related clinical events that occurred proximal to death, patients: 23 (0.6%) n (%)
  Fatal bleeding events: no fatal bleeding events
Safety population N = 4089, P-value 0.06
  Bleeding Not Likely Contributing to a Fatal Event, %: (0.1) %
Safety population N = 4089, P-value 0.18
  Any Bleeding with a Possible Fatal Association, %: (0.6) %
Safety population N = 4089, P-value 0.76
  Bleeding Likely Contributing to a Fatal Event, %: (0.5) %
Safety population, listed as icosapent ethyl
  Fatal bleeding events: no fatal bleeding observed in either group
human, in vivo
  Bleeding TEAEs, %: (11.8) %
  Bleeding-related disorders (bleeding TEAEs), patients: 11.8%
  Patients with any serious bleeding TEAE, % patients: (2.7) %
  Patients with any serious bleeding TEAE, n patients: 111
  Patients with serious CNS bleeding, % patients: (0.3) %
  Patients with serious CNS bleeding, n patients: 14
  Patients with serious Gl bleeding, % patients: (1.5) %
  Patients with serious Gl bleeding, n patients: 62
  Patients with serious other bleeding, % patients: (1.0) %
  Patients with serious other bleeding, n patients: 41
  Serious GI hemorrhage, patients: 0.6%
  Serious bleeding TEAE: Aortic Aneurysm Rupture: 1 (0.0%) n (%)
  Serious bleeding TEAE: Bleeding related disorders: 111 (2.7%) n (%)
  Serious bleeding TEAE: Brain Contusion: 0 (0.0%) n (%)
  Serious bleeding TEAE: Catheter Site Hemorrhage: 0 (0.0%) n (%)
  Serious bleeding TEAE: Central nervous system bleeding: 14 (0.3%) n (%)
  Serious bleeding TEAE: Cerebral Hemorrhage: 0 (0.0%) n (%)
  Serious bleeding TEAE: Cystitis Hemorrhagic: 2 (0.0%) n (%)
  Serious bleeding TEAE: Diverticulitis Intestinal Hemorrhagic: 0 (0.0%) n (%)
  Serious bleeding TEAE: Diverticulum Intestinal Hemorrhagic: 3 (0.1%) n (%)
  Serious bleeding TEAE: Duodenal Ulcer Hemorrhage: 2 (0.0%) n (%)
  Serious bleeding TEAE: Ecchymosis: 1 (0.0%) n (%)
  Serious bleeding TEAE: Epistaxis: 7 (0.2%) n (%)
  Serious bleeding TEAE: Esophageal Hemorrhage: 0 (0.0%) n (%)
  Serious bleeding TEAE: Extravasation Blood: 1 (0.0%) n (%)
  Serious bleeding TEAE: Gastric Hemorrhage: 1 (0.0%) n (%)
  Serious bleeding TEAE: Gastric Ulcer Hemorrhage: 3 (0.1%) n (%)
  Serious bleeding TEAE: Gastrointestinal Angiodysplasia Hemorrhagic: 1 (0.0%) n (%)
  Serious bleeding TEAE: Gastrointestinal bleeding: 62 (1.5%) n (%)
  Serious bleeding TEAE: Genital Hemorrhage: 1 (0.0%) n (%)
  Serious bleeding TEAE: Hemarthrosis: 0 (0.0%) n (%)
  Serious bleeding TEAE: Hematemesis: 3 (0.1%) n (%)
  Serious bleeding TEAE: Hematochezia: 1 (0.0%) n (%)
  Serious bleeding TEAE: Hematoma: 1 (0.0%) n (%)
  Serious bleeding TEAE: Hemoptysis: 1 (0.0%) n (%)
  Serious bleeding TEAE: Hemorrhagic Anemia: 4 (0.1%) n (%)
  Serious bleeding TEAE: Hemorrhagic Duodenitis: 0 (0.0%) n (%)
  Serious bleeding TEAE: Hemorrhagic Transformation Stroke: 1 (0.0%) n (%)
  Serious bleeding TEAE: Hemorrhoidal Hemorrhage: 3 (0.1%) n (%)
  Serious bleeding TEAE: Hemothorax: 1 (0.0%) n (%)
  Serious bleeding TEAE: Immune Thrombocytopenic Purpura: 0 (0.0%) n (%)
  Serious bleeding TEAE: Intra-Abdominal Hemorrhage: 1 (0.0%) n (%)
  Serious bleeding TEAE: Intracranial Hemorrhage: 0 (0.0%) n (%)
  Serious bleeding TEAE: Large Intestinal Hemorrhage: 1 (0.0%) n (%)
  Serious bleeding TEAE: Lower Gastrointestinal Hemorrhage: 5 (0.1%) n (%)
  Serious bleeding TEAE: Mallory-Weiss Syndrome: 1 (0.0%) n (%)
  Serious bleeding TEAE: Melaena: 3 (0.1%) n (%)
  Serious bleeding TEAE: Menorrhagia: 1 (0.0%) n (%)
  Serious bleeding TEAE: Mouth Hemorrhage: 0 (0.0%) n (%)
  Serious bleeding TEAE: Other bleeding: 41 (1.0%) n (%)
  Serious bleeding TEAE: Pancreatitis Hemorrhagic: 1 (0.0%) n (%)
  Serious bleeding TEAE: Peptic Ulcer Hemorrhage: 1 (0.0%) n (%)
  Serious bleeding TEAE: Pericardial Hemorrhage: 0 (0.0%) n (%)
  Serious bleeding TEAE: Post Procedural Hematoma: 1 (0.0%) n (%)
  Serious bleeding TEAE: Post Procedural Hematuria: 0 (0.0%) n (%)
  Serious bleeding TEAE: Post Procedural Hemorrhage: 5 (0.1%) n (%)
  Serious bleeding TEAE: Renal Hemorrhage: 0 (0.0%) n (%)
  Serious bleeding TEAE: Retinal Hemorrhage: 1 (0.0%) n (%)
  Serious bleeding TEAE: Retroperitoneal Hematoma: 0 (0.0%) n (%)
  Serious bleeding TEAE: Retroperitoneal Hemorrhage: 1 (0.0%) n (%)
  Serious bleeding TEAE: Shock Hemorrhagic: 2 (0.0%) n (%)
  Serious bleeding TEAE: Subarachnoid Hemorrhage: 2 (0.0%) n (%)
  Serious bleeding TEAE: Subdural Hemorrhage: 2 (0.0%) n (%)
  Serious bleeding TEAE: Traumatic Hematoma: 2 (0.0%) n (%)
  Serious bleeding TEAE: Traumatic Intracranial Hemorrhage: 0 (0.0%) n (%)
  Serious bleeding TEAE: Ulcer Hemorrhage: 1 (0.0%) n (%)
  Serious bleeding TEAE: Upper Gastrointestinal Hemorrhage: 3 (0.1%) n (%)
  Serious bleeding TEAE: Urinary Bladder Hemorrhage: 1 (0.0%) n (%)
  Serious bleeding TEAEs, %: (2.7) %
  Serious bleeding TEAEs, patients: 2.7%
  Serious bleeding adverse event - Epistaxis, % patients: (0.2) %
  Serious bleeding adverse event - Epistaxis, n patients: 7
  Serious bleeding adverse event - Gl hemorrhage, % patients: (0.6) %
  Serious bleeding adverse event - Gl hemorrhage, n patients: 26
  Serious bleeding adverse event - Hematuria, % patients: (0.2) %
  Serious bleeding adverse event - Hematuria, n patients: 8
  Serious bleeding adverse event - Rectal hemorrhage, % patients: (0.2) %
  Serious bleeding adverse event - Rectal hemorrhage, n patients: 10
  Serious bleeding adverse event - Subdural hematoma, % patients: (0.2) %
  Serious bleeding adverse event - Subdural hematoma, n patients: 9
  Serious central nervous system bleeding, patients: 0.3%
  Serious gastrointestinal bleeding, patients: 1.5%
  TEAE of special interest: Bleeding-related disorders, %: (11.8) %
  TEAE of special interest: Central nervous system bleeding, %: (0.5) %
  TEAE of special interest: Gastrointestinal bleeding, %: (3.1) %
  TEAE of special interest: Other bleeding, %: (9.2) %
human, in vivo, 4.9 years
  Serious bleeding TEAE: Gastrointestinal Hemorrhage: 26 (0.6%) n (%)
  Serious bleeding TEAE: Hematuria: 8 (0.2%) n (%)
  Serious bleeding TEAE: Rectal Hemorrhage: 10 (0.2%) n (%)
  Serious bleeding TEAE: Subdural Hematoma: 9 (0.2%) n (%)
On treatment: Clopidogrel, ITT
  Patients with any bleeding/at risk: 124/951

Reference: patent publication US12427134B2, “Methods of reducing the risk of cardiovascular events in a subject with atrial fibrillation and/or atrial flutter” (priority 2019, dated 2025)
